Results from PubChem BioAssay AID1224900.
pEC50: −log10 of the molar value.

Tested on: MDA-MB-231 viability, PrestoBlue fluorescence
Assay: growth inhibition of MDA-MB-231 cells, dose response, mTOR inhibitor project (AID 1224900)

pEC50: 7.14
SMILES: CCOC(Cn1nc(-c2ccc3oc(N)nc3c2)c2c(N)ncnc21)OCC
